Results: patent US20250241884A1, “Pharmaceutical Compositions of D10-Docosahexaenoic Acid or Esters Thereof” (BioJiva LLC, priority 2022, published 2025)
“Also recorded” adds a separate entry of the source. One block for each molecule: values may come before it.

Tests used:
[1] = system: adult male wild-type C57BL/6J mice; assay: Protection against geographic atrophy after intravitreal ferric ammonium citrate in mice fed D-DHA; format: in vivo; conditions: for protection against geographic atrophy: intravitreal ferric ammonium citrate
Source text: In this example, two cohorts of adult male wild-type C57BL/6J mice (Jackson Labs) were used. Both cohorts were fed identical feed containing 0.25% or 0.5% D-DHA or matching amounts of DHA as controls. After 4 weeks, the mice were given an intravitreal injection of 1 microliter of 0.5 millimolar ferric ammonium citrate diluted in 0.9% saline (test) or 1 microliter of 0.9% saline (control). Mice were then continued on their respective diets for 4 weeks after injection in order to evaluate whether D-DHA could protect against geographic atrophy which is related to AMD.

[2] = system: geographic atrophy; assay: Proposed evaluation of geographic atrophy progression in patients versus placebo (safflower oil); format: in vivo, human
Experimental: Based on the above experiment, the following provides a proposed evaluation in reduction in the rate of macular degeneration progression in a cohort of patients treated with deuterated docosahexaenoic acid ethyl ester, as compared to a cohort of test patients treated with placebo. Specifically, the treated cohort is administered 250 mg/day of deuterated docosahexaenoic acid ethyl ester or 250 mg/day of safflower oil. The patients are maintained on this dosing regimen throughout the clinical study. Periodic measurements of further geographic atrophy development are obtained.
Dosing is continued for 6 or 12, or 18 or 24 months. At that time, the average extent of geographic atrophy progression is measured for each cohort. The efficacy of the treatment protocol is evaluated by comparing the extent of geographic atrophy progression in a treated population against a placebo population. […]

[3] = Predicted steady-state D-DHA substitution and plasma decline without dosing in patients, calculated from Table 2 / FIG. 1; parameters: species or system human; conditions: for D-DHA substitution rate at steady-state (% of total DHA): DHA in human diet 130 mg/day
Source text: In contrast to controlled experimental diets, naturally occurring DHA is consumed by patients treated with D-DHA which can dilute the relative percentage of administered D-DHA absorbed with the total DHA pool and its final concentration at steady state in blood and eventually in the target tissue such as retina. The data and standard curves referred to above allow for the determination of retinal steady-state active D-DHA concentrations with reasonable accuracy by calculating the D-DHA/total DHA ratio in plasma and/or red blood cells. Table 4 exemplifies this by using a mean daily dietary intake of about 130 mg of DHA per day (which represents the 90th percentile of the mean usual DHA intake by males >51 years of age in the US.
In each case, the first order kinetics evidence that a dose of 250 mg dose of D-DHA will provide for a steady-state ratio of active D-DHA based on the total DHA concentration present, as set forth in Table 4. Extrapolating backwards from the case in Table 4, a dose of at least 130 mg/day of D-DHA should provide a 1:1 ratio of active D-DHA to DHA. That ratio has been shown above to be therapeutic. And a dose of 250 mg of higher should provide a ratio of 1.9:1 or higher which provides a margin for non-compliance as decribed herein above.
Tables 5, 6, and 7 are based on Table 2 and describe the time it takes for plasma D-DHA levels to fall below 50% or below 20% with 5 different daily doses of D-DHA in (i) patients in the 90th percentile of daily intake consuming up to 130 mg DHA (Table 5), (ii) those in the 95th percentile with a daily intake of up to 180 mg DHA (Table 6), and (iii) an example of a patient consuming more than one meal of oily fish per week with up to 260 mg daily DHA intake.

[4] = Daily D-DHA Dose 250 mg, Background DHA/Day 130 mg (90th percentile, US males)
[5] = Daily D-DHA Dose 250 mg, Background DHA/Day 180 mg (95th percentile, US males)
[6] = Daily D-DHA Dose 250 mg, Background DHA/Day 260 mg (>1 meal of oily fish per week)
[7] = Daily D-DHA Dose 500 mg, Background DHA/Day 130 mg (90th percentile, US males)
[8] = Daily D-DHA Dose 500 mg, Background DHA/Day 180 mg (95th percentile, US males)
[9] = Daily D-DHA Dose 500 mg, Background DHA/Day 260 mg (>1 meal of oily fish per week)
[10] = Daily D-DHA Dose 750 mg, Background DHA/Day 130 mg (90th percentile, US males)
[11] = Daily D-DHA Dose 750 mg, Background DHA/Day 180 mg (95th percentile, US males)
[12] = Daily D-DHA Dose 750 mg, Background DHA/Day 260 mg (>1 meal of oily fish per week)
[13] = Daily D-DHA Dose 1000 mg, Background DHA/Day 130 mg (90th percentile, US males)
[14] = Daily D-DHA Dose 1000 mg, Background DHA/Day 180 mg (95th percentile, US males)
[15] = Daily D-DHA Dose 1000 mg, Background DHA/Day 260 mg (>1 meal of oily fish per week)
[16] = Daily D-DHA Dose 1250 mg, Background DHA/Day 130 mg (90th percentile, US males)
[17] = Daily D-DHA Dose 1250 mg, Background DHA/Day 180 mg (95th percentile, US males)
[18] = Daily D-DHA Dose 1250 mg, Background DHA/Day 260 mg (>1 meal of oily fish per week)

D-DHA Substitution Rate [3, 4]: ~66%
D-DHA/DHA Ratio [3, 4]: 1.92 to 1
Time to reach 20% in Plasma (0.2:1 D-DHA to DHA Ratio) w/o taking oral D-DHA [3, 4]: ≤ 77 days
Time to reach ≤50% in Plasma (1:1 D-DHA to DHA Ratio) w/o taking oral D-DHA [3, 4]: ≤ 22 days
D-DHA Substitution Rate [3, 5]: ~58%
Days to reach ≤50% in Plasma (1:1 D-DHA to DHA Ratio) w/o taking oral D-DHA [3, 5]: ≤ 11 days
Time to reach 20% in Plasma (0.2:1 D-DHA to DHA Ratio) w/o taking oral D-DHA [3, 5]: ≤ 66 days
D-DHA Substitution Rate [3, 6]: ~49%
Time to reach 20% in Plasma (0.2:1 D-DHA to DHA Ratio) w/o taking oral D-DHA [3, 6]: ≤ 29 days
D-DHA Substitution Rate [3, 7]: ~79%
Time to reach 20% in Plasma (0.2:1 D-DHA to DHA Ratio) w/o taking oral D-DHA [3, 7]: ≤ 46 days
Time to reach ≤50% in Plasma (1:1 D-DHA to DHA Ratio) w/o taking oral D-DHA [3, 7]: ≤ 6 days
D-DHA Substitution Rate [3, 8]: ~74%
Days to reach ≤50% in Plasma (1:1 D-DHA to DHA Ratio) w/o taking oral D-DHA [3, 8]: ≤ 35 days
Time to reach 20% in Plasma (0.2:1 D-DHA to DHA Ratio) w/o taking oral D-DHA [3, 8]: ≤ 90 days
D-DHA Substitution Rate [3, 9]: ~66%
Days to reach ≤50% in Plasma (1:1 D-DHA to DHA Ratio) w/o taking oral D-DHA [3, 9]: ≤ 8 days
Time to reach 20% in Plasma (0.2:1 D-DHA to DHA Ratio) w/o taking oral D-DHA [3, 9]: ≤ 63 days
D-DHA Substitution Rate [3, 10]: ~85%
Time to reach 20% in Plasma (0.2:1 D-DHA to DHA Ratio) w/o taking oral D-DHA [3, 10]: ≤ 101 days
Time to reach ≤50% in Plasma (1:1 D-DHA to DHA Ratio) w/o taking oral D-DHA [3, 10]: ≤ 60 days
D-DHA Substitution Rate [3, 11]: ~81%
Days to reach ≤50% in Plasma (1:1 D-DHA to DHA Ratio) w/o taking oral D-DHA [3, 11]: ≤ 49 days
Time to reach 20% in Plasma (0.2:1 D-DHA to DHA Ratio) w/o taking oral D-DHA [3, 11]: ≤ 104 days
D-DHA Substitution Rate [3, 12]: ~74%
Days to reach ≤50% in Plasma (1:1 D-DHA to DHA Ratio) w/o taking oral D-DHA [3, 12]: ≤ 26 days
Time to reach 20% in Plasma (0.2:1 D-DHA to DHA Ratio) w/o taking oral D-DHA [3, 12]: ≤ 81 days
D-DHA Substitution Rate [3, 13]: ~88%
Time to reach 20% in Plasma (0.2:1 D-DHA to DHA Ratio) w/o taking oral D-DHA [3, 13]: ≤ 125 days
Time to reach ≤50% in Plasma (1:1 D-DHA to DHA Ratio) w/o taking oral D-DHA [3, 13]: ≤ 70 days
D-DHA Substitution Rate [3, 14]: ~85%
Days to reach ≤50% in Plasma (1:1 D-DHA to DHA Ratio) w/o taking oral D-DHA [3, 14]: ≤ 59 days
Time to reach 20% in Plasma (0.2:1 D-DHA to DHA Ratio) w/o taking oral D-DHA [3, 14]: ≤ 114 days
D-DHA Substitution Rate [3, 15]: ~79%
Days to reach ≤50% in Plasma (1:1 D-DHA to DHA Ratio) w/o taking oral D-DHA [3, 15]: ≤ 38 days
Time to reach 20% in Plasma (0.2:1 D-DHA to DHA Ratio) w/o taking oral D-DHA [3, 15]: ≤ 93 days
D-DHA Substitution Rate [3, 16]: ~91%
Time to reach 20% in Plasma (0.2:1 D-DHA to DHA Ratio) w/o taking oral D-DHA [3, 16]: ≤ 132 days
Time to reach ≤50% in Plasma (1:1 D-DHA to DHA Ratio) w/o taking oral D-DHA [3, 16]: ≤ 77 days
D-DHA Substitution Rate [3, 17]: ~87%
Days to reach ≤50% in Plasma (1:1 D-DHA to DHA Ratio) w/o taking oral D-DHA [3, 17]: ≤ 67 days
Time to reach 20% in Plasma (0.2:1 D-DHA to DHA Ratio) w/o taking oral D-DHA [3, 17]: ≤ 121 days
D-DHA Substitution Rate [3, 18]: ~83%
Days to reach ≤50% in Plasma (1:1 D-DHA to DHA Ratio) w/o taking oral D-DHA [3, 18]: ≤ 47 days
Time to reach 20% in Plasma (0.2:1 D-DHA to DHA Ratio) w/o taking oral D-DHA [3, 18]: ≤ 102 days
D-DHA substitution rate at steady-state (% of total DHA) ([3]; Fixed daily D-DHA dose 250 mg): 66%
D-DHA substitution rate at steady-state (% of total DHA) ([3]; Fixed daily D-DHA dose 500 mg): 79%
D-DHA substitution rate at steady-state (% of total DHA) ([3]; Fixed daily D-DHA dose 1000 mg): 88%
time to reach steady state concentrations of active D-DHA after start of therapy ([3]; plasma, patient): about 14 days
time to reach steady state concentrations of active D-DHA after start of therapy ([3]; red blood cell, patient): about 45 days
time to reach steady state concentration of active D-DHA after start of therapy ([3]; skeletal muscle tissue, patient): about 11 weeks
Compound: [2H]C([2H])(/C=C\CC)/C=C\C([2H])([2H])/C=C\C([2H])([2H])/C=C\C([2H])([2H])/C=C\C([2H])([2H])/C=C\CCC(=O)O [D-DHA, D-10-docosahexaenoic acid]
protection against geographic atrophy ([1]; concentration of D-DHA at least 50% of the total DHA in the retina, feed 0.25% or 0.5% D-DHA): fully protected against geographic atrophy
protection against geographic atrophy ([1]; lower concentrations of D-DHA to DHA (below 50% of total DHA in the retina)): protection was achieved but at reduced rates
protection / reduction in lipid peroxidation ([1]; ratio of about 1:4 of D-DHA to DHA): the protection is accorded; also recorded: sufficient to provide for therapeutic reduction in lipid peroxidation
protection / reduction in lipid peroxidation ([1]; ratio of at least about 1:1 D-DHA to DHA): protect is maximal; also recorded: near maximal results are obtained
percent reduction in geographic atrophy [(F/E)×100] ([2]; individual patient treated with 1,000 mg of D-DHA versus placebo cohort, 6, 12, 18 or 24 months): positive percent reduction in geographic atrophy that is statistically significant

Compound: [2H]C([2H])(/C=C\CC)/C=C\C([2H])([2H])/C=C\C([2H])([2H])/C=C\C([2H])([2H])/C=C\C([2H])([2H])/C=C\CCC(=O)OCC [deuterated docosahexaenoic acid ethyl ester]
reduction in the rate of disease progression (geographic atrophy progression) ([2]; cohort of patients, 250 mg/day, 6 or 12 or 18 or 24 months, versus placebo (safflower oil)): statistically significant reduction in the rate of disease progression
percent reduction in geographic atrophy area [(C/B)×100] ([2]; cohort of treated patients versus placebo cohort, 6, 12, 18 or 24 months post start of therapy): positive percent reduction in geographic atrophy area that is statistically significant
